Measured values as given in paper PMC5681660, “Reduced hepatitis B and D viral entry using clinically applied drugs as novel inhibitors of the bile acid transporter NTCP” (Scientific Reports, 2017).
Entries after “also recorded” stand apart in the source; their conditions may differ.

Tests used:
[1] = tested on: patient-derived HBV (genotype B); assay: Serum-derived HBV genotype B infection of HepaRG cells stably transduced with hNTCP; type: cell-based, hepatitis B virus; settings: NTCP-overexpressing HepaRG cells
Experimental: Supplementary materials and methods Serum-derived HBV genotype B infection study For these experiments HepaRG cells stably transduced with hNTCP were used. Differentiation and serum-derived HBV genotype B infection were performed following similar protocols as described for wildtype HepaRG cells in the main materials&methods with the following changes: 8 hours infection and supernatant collection for HBeAg and HBsAg analysis from day 9 to 12. Total RNA was extracted from cells 12 days after infection using the NucleoSpin RNA isolation kit (Macherey-Nagel). Reverse transcription was performed with the High-Capacity cDNA Reverse Transcription Kit (Thermo Scientific). mRNA levels were determined by qPCR using the iTaq™ Universal SYBR® Green Supermix (Bio-rad) with HBV specific primers (forward: 5’-[…]-3’; reverse: 5’-[…]-3’). GAPDH mRNA levels were used for normalization (forward: 5’-[…]-3’; reverse: 5’-[…]-3’). Total DNA was extracted from cells 12 days after infection using the NucleoSpin Tissue kit (Macherey-Nagel). HBV DNA levels were determined by qPCR PerfeCTa qPCR Toughmix (Quanta Biosciences) with HBV specific primers (forward: 5’- […]-3’; reverse: 5’- […]-3’) and a probe (5’-TxRed-[…]-BHQ2-3’). β-globin levels were used for normalization (forward: 5’- […]-3’; reverse: 5’- […]-3’; probe: 5’-HEX- […]-BHQ1-3’). […]

human NTCP = biological target: T1, human NTCP (Homo sapiens, UniProt Q14973); assay: Myrcludex B-FITC binding by confocal microscopy in U2OS-HA-hNTCP cells; design: HA; expressed in transfected cells
T1 sequence (Q14973 1-349): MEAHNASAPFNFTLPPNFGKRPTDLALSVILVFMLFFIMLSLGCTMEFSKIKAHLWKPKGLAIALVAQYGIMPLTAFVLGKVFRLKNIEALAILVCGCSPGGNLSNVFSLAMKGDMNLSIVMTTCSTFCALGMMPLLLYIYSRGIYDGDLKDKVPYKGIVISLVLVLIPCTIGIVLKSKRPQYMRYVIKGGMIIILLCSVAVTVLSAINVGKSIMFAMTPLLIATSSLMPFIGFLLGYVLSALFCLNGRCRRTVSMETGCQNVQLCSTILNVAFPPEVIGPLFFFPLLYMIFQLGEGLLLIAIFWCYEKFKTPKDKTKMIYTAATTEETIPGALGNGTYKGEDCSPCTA
Experimental: After 24 hours, medium was aspirated and cells were washed once with 300 µl Leibovitz’s L-15 Medium (Invitrogen). A 30 minute incubation period followed in which all cells were incubated with 0.2 µM Myrcludex B-FITC with or without drug (1, 10, 100 µM) and Hoechst (1/1000) in 300 µL Leibovitz’s L-15 Medium. Cells were washed twice with Leibovitz’s L-15 Medium and subsequently 400 µL Leibovitz’s L-15 Medium was added. Live cell fluorescent imaging was performed using a Leica SP8X-SMD confocal microscope with fully enclosed incubation at 37 °C. A 63x oil objective was used and images were captured while the cells were consecutively excited at 490 nm (FITC) 350 nm (Hoechst). ImageJ software (National Insititutes of Health, Bethesda, MD) was employed for data analysis.

Question: What does the source list for `O=C(O)c1cc(/N=N/c2ccc(S(=O)(=O)Nc3ccccn3)cc2)ccc1O` [Sulfasalazine]?
Answer: HBeAg, HBsAg, HBV DNA and HBV RNA after serum-derived HBV infection [1]: reduced HBeAg, HBsAg, HBV DNA, and HBV RNA in a dose-dependent fashion; HBeAg, HBsAg, HBV DNA and HBV RNA after serum-derived HBV infection ([1]; listed as sulfasalazine): reduced by sulfasalazine in a dose-dependent fashion; HBV infection in HepaRG cells (in words) (HBV; HBeAg, HBsAg, HBcAg, concentration-dependent): reduced HBV/HDV infection; also recorded: reduce; concentration effective in reducing HBsAg (HBV; HepaRG cells infected with HBV, supernatant day 7 to 10): ≥ 50 µM; number of HBcAg positive stained cells (HBV; HepaRG cells, day 10 post HBV infection, 50 µM): mild reduction; Myrcludex B-FITC fluorescence / binding to U2OS-HA-hNTCP cells (in words) (human NTCP; co-administration with increasing amounts of drug): reduced; ≥50% loss of Myrcludex B binding to hNTCP (concentration) (human NTCP; confocal microscopy, 0.2 µM Myrcludex B-FITC, drug 1, 10, 100 µM, concentration at which binding inhibited minimally 50%): ≥1 µM
